Results reported in PubChem BioAssay AID248 (DTP/NCI, 2004).
Inconclusive results and toxic doses are left out. Rule as the data show it: active = T/C of 150% or more; inactive = T/C below 125%.

System: L1210 leukemia ip in BDF1 mice, survival T/C
Test: NCI In Vivo Anticancer Drug Screen. Data for tumor model L1210 Leukemia (intraperitoneal) in B6D2F1 (BDF1) mice
Conditions: endpoint: mean survival time, higher = longer survival
Method in brief: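 Mice bearing the transplanted tumor received compound or vehicle. Survival of the treated group was divided by that of the vehicle-treated control group to give the ratio.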

Measured: T/C

CCCCCCC#CC(=O)OCCCCCC
inactive: dose: 100.0 mg/kg/injection, schedule: Q04DX002 (ip), vehicle: saline 108 % of control | dose: 200.0 mg/kg/injection, schedule: Q04DX002 (ip), vehicle: saline 94 % of control | dose: 400.0 mg/kg/injection, schedule: Q04DX002 (ip), vehicle: saline 97 % of control

CC1(C)CCCC2(C)C3Cc4occc4C(C(=O)O)C3C(O)C(O)C12 (stereo not drawn)
inactive: dose: 100.0 mg/kg/injection, schedule: Q04DX003 (ip), vehicle: saline with Tween-80 106 % of control | dose: 200.0 mg/kg/injection, schedule: Q04DX003 (ip), vehicle: saline with Tween-80 109 % of control | dose: 400.0 mg/kg/injection, schedule: Q04DX003 (ip), vehicle: saline with Tween-80 98 % of control

Nc1cccc(CCCCc2ccccc2)c1
inactive: dose: 100.0 mg/kg/injection, schedule: Q01DX001 (ip), vehicle: saline with Tween-80 102 % of control | dose: 200.0 mg/kg/injection, schedule: Q01DX001 (ip), vehicle: saline with Tween-80 100 % of control

CC(N)C(O)c1cccc(O)c1 (stereo not drawn)
inactive: dose: 6.25 mg/kg/injection, schedule: Q01DX009 (ip), vehicle: saline 117 % of control | dose: 12.5 mg/kg/injection, schedule: Q01DX009 (ip), vehicle: saline 100 % of control | dose: 25.0 mg/kg/injection, schedule: Q01DX009 (ip), vehicle: saline 105 % of control | dose: 25.0 mg/kg/injection, schedule: Q04DX003 (ip), vehicle: saline 108 % of control | dose: 50.0 mg/kg/injection, schedule: Q01DX009 (ip), vehicle: saline 100 % of control | dose: 50.0 mg/kg/injection, schedule: Q04DX003 (ip), vehicle: saline 105 % of control | dose: 100.0 mg/kg/injection, schedule: Q01DX009 (ip), vehicle: saline 117 % of control | dose: 100.0 mg/kg/injection, schedule: Q04DX003 (ip), vehicle: saline 97 % of control

CN(C)C(=O)CCCc1ccc(N(CCCl)CCCl)cc1
inactive: dose: 4.0 mg/kg/injection, schedule: Q12HX018 (ip), vehicle: other 108 % of control | dose: 6.0 mg/kg/injection, schedule: Q12HX018 (ip), vehicle: other 97 % of control | dose: 8.0 mg/kg/injection, schedule: Q12HX018 (ip), vehicle: other 103 % of control | dose: 100.0 mg/kg/injection, schedule: Q01DX001 (ip), vehicle: carboxymethylcellulose (CMC) 123 % of control | dose: 200.0 mg/kg/injection, schedule: Q01DX001 (ip), vehicle: carboxymethylcellulose (CMC) 118 % of control | dose: 400.0 mg/kg/injection, schedule: Q01DX001 (ip), vehicle: carboxymethylcellulose (CMC) 103 % of control

Clc1ccc(-c2nn[nH]n2)cc1
inactive: dose: 100.0 mg/kg/injection, schedule: Q04DX002 (ip), vehicle: Klucel (hydroxypropylcellulose) (HPC) 96 % of control | dose: 200.0 mg/kg/injection, schedule: Q04DX002 (ip), vehicle: Klucel (hydroxypropylcellulose) (HPC) 93 % of control

O=C(O)c1cc(Cl)c(O)c(Cl)c1
inactive: dose: 100.0 mg/kg/injection, schedule: Q01DX009 (ip), vehicle: saline with Tween-80 107 % of control | dose: 200.0 mg/kg/injection, schedule: Q01DX009 (ip), vehicle: saline with Tween-80 91 % of control | dose: 400.0 mg/kg/injection, schedule: Q01DX009 (ip), vehicle: saline with Tween-80 101 % of control

O=c1c2ccccc2nc(-c2ccccc2)n1O
inactive: dose: 100.0 mg/kg/injection, schedule: Q04DX003 (ip), vehicle: Klucel (hydroxypropylcellulose) (HPC) 103 % of control | dose: 200.0 mg/kg/injection, schedule: Q04DX003 (ip), vehicle: Klucel (hydroxypropylcellulose) (HPC) 106 % of control | dose: 400.0 mg/kg/injection, schedule: Q04DX003 (ip), vehicle: Klucel (hydroxypropylcellulose) (HPC) 91 % of control

CC12CCC(O)CC1CCC1C2CCC2(C)C(c3ccc(=O)oc3)C(O)C3OC132 (stereo not drawn)
inactive: dose: 1.87 mg/kg/injection, schedule: Q01DX009 (ip), vehicle: Klucel (hydroxypropylcellulose) (HPC) 105 % of control | dose: 3.5 mg/kg/injection, schedule: Q01DX009 (ip), vehicle: Klucel (hydroxypropylcellulose) (HPC) 96 % of control | dose: 7.0 mg/kg/injection, schedule: Q01DX009 (ip), vehicle: Klucel (hydroxypropylcellulose) (HPC) 91 % of control
